Measured values published in PubChem BioAssay AID2060622 (Molecular Pharmacology Branch, DTP, NCI, 2025).

System: 242566-281-R-J2-PDC complex spheroid viability
Experiment: Anticancer human tumor 242566-281-R-J2-PDC patient-derived pancreatic carcinoma cell line growth inhibition [CLK]
Details: for IC50: curve of first compound; for viability, T/C: stronger effect = lower value
How it was run: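 Patient-derived tumor cells grown as complex spheroids with HUVEC endothelial cells and mesenchymal stem cells, treated with drug combinations. Concentrations descend in half-log steps from near clinical Cmax, or from 10 microM if Cmax unknown.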
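Also: spheroids exposed to compounds for 7 days before readout.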
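For viability, T/C in this document: 100% = DMSO vehicle control wells.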

Q: With `C=CC(=O)Nc1cc(Nc2nccc(-c3cn(C)c4ccccc34)n2)c(OC)cc1N(C)CCN(C)C` + CN1CCN(c2cc(C(=O)Nc3cc4cc(-c5cnn(C)c5)ccc4cn3)ccn2)CC1 as the compound, how does the IC50 (second compound 0.0316 µM) read?
A: Its IC50 is greater than 0.3 µM.

Q: What about the IC50 (second compound 0.1 µM) of the same compound?
A: Its IC50 is greater than 0.3 µM.

Q: What about the IC50 (second compound 0.316 µM) of the same compound?
A: Its IC50 is less than 0.000949 µM.

Q: And the IC50 (second compound 1 µM)?
A: Its IC50 is less than 0.000949 µM.

Q: And the IC50 (second compound 3.16 µM)?
A: Its IC50 is less than 0.000949 µM.

Q: What about the IC50 (second compound 10 µM) of the same compound?
A: The IC50 was less than 0.000949 µM.

Q: And the viability, T/C (second compound 0.0316 µM, first compound 0.000949 µM)?
A: Its viability, T/C is 92.7%.

Q: What about the viability, T/C (second compound 0.0316 µM, first compound 0.003 µM) of the same compound?
A: The viability, T/C was 103%.

Q: What about the viability, T/C (second compound 0.0316 µM, first compound 0.00949 µM) of the same compound?
A: The viability, T/C was 91.8%.

Q: And the viability, T/C (second compound 0.0316 µM, first compound 0.03 µM)?
A: Its viability, T/C is 96.7%.

Q: What about the viability, T/C (second compound 0.0316 µM, first compound 0.0949 µM) of the same compound?
A: The viability, T/C was 95.1%.

Q: What about the viability, T/C (second compound 0.0316 µM, first compound 0.3 µM) of the same compound?
A: Its viability, T/C is 71.8%.

Q: What about the viability, T/C (second compound 0.1 µM, first compound 0.000949 µM) of the same compound?
A: The viability, T/C was 102%.

Q: What about the viability, T/C (second compound 0.1 µM, first compound 0.003 µM) of the same compound?
A: Its viability, T/C is 85.8%.

Q: And the viability, T/C (second compound 0.1 µM, first compound 0.00949 µM)?
A: The viability, T/C was 84.2%.

Q: And the viability, T/C (second compound 0.1 µM, first compound 0.03 µM)?
A: The viability, T/C was 73.6%.

Q: And the viability, T/C (second compound 0.1 µM, first compound 0.0949 µM)?
A: The viability, T/C was 79.8%.

Q: And the viability, T/C (second compound 0.1 µM, first compound 0.3 µM)?
A: Its viability, T/C is 62.9%.

Q: And the viability, T/C (second compound 0.316 µM, first compound 0.000949 µM)?
A: The viability, T/C was 32.1%.

Q: What about the viability, T/C (second compound 0.316 µM, first compound 0.003 µM) of the same compound?
A: Its viability, T/C is 33.7%.

Q: What about the viability, T/C (second compound 0.316 µM, first compound 0.00949 µM) of the same compound?
A: The viability, T/C was 27.7%.

Q: And the viability, T/C (second compound 0.316 µM, first compound 0.03 µM)?
A: The viability, T/C was 23%.

Q: And the viability, T/C (second compound 0.316 µM, first compound 0.0949 µM)?
A: The viability, T/C was 25.2%.

Q: What about the viability, T/C (second compound 0.316 µM, first compound 0.3 µM) of the same compound?
A: The viability, T/C was 20.1%.

Q: What about the viability, T/C (second compound 1 µM, first compound 0.000949 µM) of the same compound?
A: Its viability, T/C is 4.67%.

Q: What about the viability, T/C (second compound 1 µM, first compound 0.003 µM) of the same compound?
A: Its viability, T/C is 4.02%.

Q: What about the viability, T/C (second compound 1 µM, first compound 0.00949 µM) of the same compound?
A: The viability, T/C was 4.33%.

Q: What about the viability, T/C (second compound 1 µM, first compound 0.03 µM) of the same compound?
A: Its viability, T/C is 3.28%.

Q: What about the viability, T/C (second compound 1 µM, first compound 0.0949 µM) of the same compound?
A: The viability, T/C was 2.72%.

Q: What about the viability, T/C (second compound 1 µM, first compound 0.3 µM) of the same compound?
A: Its viability, T/C is 2.12%.

Q: And the viability, T/C (second compound 3.16 µM, first compound 0.000949 µM)?
A: Its viability, T/C is 6.9%.

Q: And the viability, T/C (second compound 3.16 µM, first compound 0.003 µM)?
A: The viability, T/C was 6.41%.

Q: And the viability, T/C (second compound 3.16 µM, first compound 0.00949 µM)?
A: The viability, T/C was 6.23%.

Q: And the viability, T/C (second compound 3.16 µM, first compound 0.03 µM)?
A: Its viability, T/C is 6.27%.

Q: What about the viability, T/C (second compound 3.16 µM, first compound 0.0949 µM) of the same compound?
A: Its viability, T/C is 5.66%.

Q: And the viability, T/C (second compound 3.16 µM, first compound 0.3 µM)?
A: The viability, T/C was 4.09%.

Q: And the viability, T/C (second compound 10 µM, first compound 0.000949 µM)?
A: The viability, T/C was 2.35%.

Q: What about the viability, T/C (second compound 10 µM, first compound 0.003 µM) of the same compound?
A: Its viability, T/C is 1.98%.

Q: What about the viability, T/C (second compound 10 µM, first compound 0.00949 µM) of the same compound?
A: The viability, T/C was 1.72%.

Q: And the viability, T/C (second compound 10 µM, first compound 0.03 µM)?
A: The viability, T/C was 2.34%.

Q: And the viability, T/C (second compound 10 µM, first compound 0.0949 µM)?
A: The viability, T/C was 2.25%.

Q: What about the viability, T/C (second compound 10 µM, first compound 0.3 µM) of the same compound?
A: Its viability, T/C is 1.2%.

Q: Which IC50 (second compound 0.0316 µM) does the source give for `CC1(C)CCC(CN2CCN(c3ccc(C(=O)NS(=O)(=O)c4ccc(NCC5CCOCC5)c([N+](=O)[O-])c4)c(Oc4cnc5[nH]ccc5c4)c3)CC2)=C(c2ccc(Cl)cc2)C1` + CN1CCN(c2cc(C(=O)Nc3cc4cc(-c5cnn(C)c5)ccc4cn3)ccn2)CC1 here?
A: The IC50 was 6.54 µM.

Q: What about the IC50 (second compound 0.1 µM) of the same compound?
A: Its IC50 is 6.08 µM.

Q: What about the IC50 (second compound 0.316 µM) of the same compound?
A: Its IC50 is less than 0.0316 µM.

Q: And the IC50 (second compound 1 µM)?
A: The IC50 was less than 0.0316 µM.

Q: What about the IC50 (second compound 3.16 µM) of the same compound?
A: Its IC50 is less than 0.0316 µM.

Q: And the IC50 (second compound 10 µM)?
A: Its IC50 is less than 0.0316 µM.

Q: And the viability, T/C (second compound 0.0316 µM, first compound 0.0316 µM)?
A: The viability, T/C was 109%.

Q: And the viability, T/C (second compound 0.0316 µM, first compound 0.1 µM)?
A: The viability, T/C was 109%.

Q: And the viability, T/C (second compound 0.0316 µM, first compound 0.316 µM)?
A: Its viability, T/C is 101%.

Q: What about the viability, T/C (second compound 0.0316 µM, first compound 1 µM) of the same compound?
A: The viability, T/C was 112%.

Q: What about the viability, T/C (second compound 0.0316 µM, first compound 3.16 µM) of the same compound?
A: Its viability, T/C is 109%.

Q: And the viability, T/C (second compound 0.0316 µM, first compound 10 µM)?
A: The viability, T/C was 16.1%.

Q: And the viability, T/C (second compound 0.1 µM, first compound 0.0316 µM)?
A: The viability, T/C was 100%.

Q: And the viability, T/C (second compound 0.1 µM, first compound 0.1 µM)?
A: The viability, T/C was 92.8%.

Q: And the viability, T/C (second compound 0.1 µM, first compound 0.316 µM)?
A: The viability, T/C was 93.2%.

Q: And the viability, T/C (second compound 0.1 µM, first compound 1 µM)?
A: Its viability, T/C is 96.9%.

Q: And the viability, T/C (second compound 0.1 µM, first compound 3.16 µM)?
A: Its viability, T/C is 107%.

Q: What about the viability, T/C (second compound 0.1 µM, first compound 10 µM) of the same compound?
A: The viability, T/C was 13.4%.

Q: What about the viability, T/C (second compound 0.316 µM, first compound 0.0316 µM) of the same compound?
A: The viability, T/C was 38.1%.

Q: And the viability, T/C (second compound 0.316 µM, first compound 0.1 µM)?
A: Its viability, T/C is 34%.

Q: And the viability, T/C (second compound 0.316 µM, first compound 0.316 µM)?
A: Its viability, T/C is 31.9%.

Q: And the viability, T/C (second compound 0.316 µM, first compound 1 µM)?
A: Its viability, T/C is 38.9%.

Q: What about the viability, T/C (second compound 0.316 µM, first compound 3.16 µM) of the same compound?
A: Its viability, T/C is 36.2%.

Q: And the viability, T/C (second compound 0.316 µM, first compound 10 µM)?
A: Its viability, T/C is 5.57%.

Q: What about the viability, T/C (second compound 1 µM, first compound 0.0316 µM) of the same compound?
A: The viability, T/C was 5.27%.

Q: And the viability, T/C (second compound 1 µM, first compound 0.1 µM)?
A: Its viability, T/C is 5.79%.

Q: What about the viability, T/C (second compound 1 µM, first compound 0.316 µM) of the same compound?
A: Its viability, T/C is 6.15%.

Q: And the viability, T/C (second compound 1 µM, first compound 1 µM)?
A: Its viability, T/C is 6.22%.

Q: What about the viability, T/C (second compound 1 µM, first compound 3.16 µM) of the same compound?
A: The viability, T/C was 5.21%.

Q: What about the viability, T/C (second compound 1 µM, first compound 10 µM) of the same compound?
A: The viability, T/C was 1.17%.

Q: What about the viability, T/C (second compound 3.16 µM, first compound 0.0316 µM) of the same compound?
A: Its viability, T/C is 7.94%.

Q: And the viability, T/C (second compound 3.16 µM, first compound 0.1 µM)?
A: The viability, T/C was 7.2%.

Q: What about the viability, T/C (second compound 3.16 µM, first compound 0.316 µM) of the same compound?
A: The viability, T/C was 8.15%.

Q: And the viability, T/C (second compound 3.16 µM, first compound 1 µM)?
A: The viability, T/C was 7.96%.

Q: And the viability, T/C (second compound 3.16 µM, first compound 3.16 µM)?
A: Its viability, T/C is 6.33%.

Q: What about the viability, T/C (second compound 3.16 µM, first compound 10 µM) of the same compound?
A: The viability, T/C was 1.38%.

Q: What about the viability, T/C (second compound 10 µM, first compound 0.0316 µM) of the same compound?
A: The viability, T/C was 2.16%.

Q: And the viability, T/C (second compound 10 µM, first compound 0.1 µM)?
A: The viability, T/C was 2.09%.

Q: What about the viability, T/C (second compound 10 µM, first compound 0.316 µM) of the same compound?
A: Its viability, T/C is 1.92%.

Q: And the viability, T/C (second compound 10 µM, first compound 1 µM)?
A: Its viability, T/C is 2.08%.

Q: What about the viability, T/C (second compound 10 µM, first compound 3.16 µM) of the same compound?
A: Its viability, T/C is 1.25%.

Q: And the viability, T/C (second compound 10 µM, first compound 10 µM)?
A: Its viability, T/C is 0.24%.
